Columns and labels:
HepG2 cells = assay: MTT antitumour assay, HepG2; assay type: cell-based; conditions: human hepato-cellular carcinoma cell line, mean ± SD, n = 3
Experimental: (§1) The evaluation of the antitumour activity was performed using tetrazolium salt MTT (3-(4,5-dimethyl-2-thiazolyl)-2,5-diphenyl-2H-tetrazolium bromide) assay as reported[62]^,[63].
(§2) The designed compounds were evaluated for their in vitro antitumour effects via the standard 3-(4,5-dimethylthiazol-2-yl)-2,5-diphenyltetrazolium bromide (MTT) method against a panel of four human tumour cell lines; namely, hepatocellular carcinoma cell line (HepG2), breast cancer cell line (MCF-7), human cervical cancer cell line (HeLa), and prostate cancer cell line (PC-3)[62]^,[63]^,[72]. The antitumour activities of the designed compounds 4–12, along with that of the reference drugs 5-FU and afatinib are shown in Table 1.

MCF-7 cells = assay: MTT antitumour assay, MCF-7; assay type: cell-based; conditions: MCF7, human breast adenocarcinoma cell line, mean ± SD, n = 3
Experimental: as §1, §2

HeLa cells = assay: MTT antitumour assay, HeLa; assay type: cell-based; conditions: human cervical epithelioid carcinoma cell line, mean ± SD, n = 3
Experimental: as §1
as §2, with “(PC-3)[62]^,[63]^,[72].” for “(PC-3)[62]^,[63]^,[72]. The antitumour activities of the designed compounds 4–12, along with that of the reference drugs 5-FU and afatinib are shown in Table 1.”

PC-3 cells = assay: MTT antitumour assay, PC-3; assay type: cell-based; conditions: PC-3; MTT; human prostate cancer cell line; mean ± SD, n = 3
Experimental: as §1, §2

[1] = ABTS radical cation scavenging (antioxidant) assay; conditions: 20 µl of 1 mg/ml test sample (L-ascorbic acid 20 µl, 2 mM)
Experimental: The absorbance (Acontrol) of a green-blue solution (ABTS^+ radical solution) resulted from a mixture of ABTS and manganese dioxide (MnO2) and was recorded at λmax 734 nm, according to the reported procedure[64]^,[65]. The absorbance (Atest) was measured upon the addition of 20 µl of 1 mg/ml solution of the test sample in spectroscopic grade methanol/phosphate buffer (1:1 v/v) to the ABTS solution. The decrease in absorbance is expressed as % inhibition, which can be calculated from the following equation: % inhibition = Acontrol-Atest/Acontrol×100.
L-Ascorbic acid 20 µl (2 mM) solution was used as standard antioxidant (positive control). A blank sample was run using only methanol/phosphate buffer (1:1), while the negative control was run with ABTS and the methanol/phosphate buffer.
The assay is based on measuring the ability of the tested compounds to scavenge the long-life radical cation of ABTS[22]^,[43]^,[64]^,[65].

[2] = test system: HepG2, MCF-7, HeLa, and PC-3 cancer cell lines; assay: MTT antitumour assay, range over the four cell lines; assay type: cell-based, human; conditions: Homo sapiens, range over HepG2, MCF-7, HeLa, PC-3 (and over the compounds named), read-out: IC50 range against the tested cell lines
Experimental: as §1, §2

EGFR kinase = EGFR kinase (Homo sapiens, UniProt P00533); assay: ELISA-based EGFR kinase inhibition assay; conditions: for Conc. (Average), ELISA read-out: duplicate wells, standards in ng/ml, cont 134.9
Sequence of EGFR kinase (P00533 25-1210): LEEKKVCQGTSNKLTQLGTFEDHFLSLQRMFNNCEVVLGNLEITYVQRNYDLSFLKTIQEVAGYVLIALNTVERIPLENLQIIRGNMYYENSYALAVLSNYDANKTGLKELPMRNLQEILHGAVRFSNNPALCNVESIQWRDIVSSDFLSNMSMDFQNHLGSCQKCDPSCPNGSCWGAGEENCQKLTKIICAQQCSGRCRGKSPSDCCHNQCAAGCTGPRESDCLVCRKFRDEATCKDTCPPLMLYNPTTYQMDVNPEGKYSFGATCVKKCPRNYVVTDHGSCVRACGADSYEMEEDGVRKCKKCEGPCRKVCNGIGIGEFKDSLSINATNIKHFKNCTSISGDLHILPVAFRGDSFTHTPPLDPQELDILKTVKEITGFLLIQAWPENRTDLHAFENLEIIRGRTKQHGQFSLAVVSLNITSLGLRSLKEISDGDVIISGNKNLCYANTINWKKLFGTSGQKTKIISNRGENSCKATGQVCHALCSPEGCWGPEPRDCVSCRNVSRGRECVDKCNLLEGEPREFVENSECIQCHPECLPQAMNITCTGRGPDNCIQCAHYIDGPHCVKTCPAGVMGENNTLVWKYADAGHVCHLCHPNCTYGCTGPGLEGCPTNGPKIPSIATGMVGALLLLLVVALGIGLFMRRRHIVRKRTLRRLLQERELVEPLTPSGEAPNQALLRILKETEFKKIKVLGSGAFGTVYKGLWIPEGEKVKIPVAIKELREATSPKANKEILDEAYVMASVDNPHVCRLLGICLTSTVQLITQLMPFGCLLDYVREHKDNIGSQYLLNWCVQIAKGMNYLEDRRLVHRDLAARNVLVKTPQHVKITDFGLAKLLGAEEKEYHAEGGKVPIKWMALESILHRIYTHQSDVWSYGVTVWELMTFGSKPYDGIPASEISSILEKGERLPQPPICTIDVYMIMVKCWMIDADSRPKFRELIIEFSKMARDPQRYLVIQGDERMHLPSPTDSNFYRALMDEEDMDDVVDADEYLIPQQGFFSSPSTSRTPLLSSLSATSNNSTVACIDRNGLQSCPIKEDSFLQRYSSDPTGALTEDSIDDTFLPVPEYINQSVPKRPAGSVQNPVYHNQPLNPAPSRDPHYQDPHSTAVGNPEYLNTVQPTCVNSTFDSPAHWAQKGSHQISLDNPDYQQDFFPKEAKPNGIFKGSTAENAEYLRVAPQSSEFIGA

CC(=O)C=Cc1ccc(OC2CCCC2)cc1 [4a, 4-(4-(Cyclopentyloxy)phenyl)but-3-en-2-one]
IC50 (HepG2 cells): 27.3 ± 1.96 µM
IC50 (MCF-7 cells): 40.9 ± 2.79 µM
IC50 (HeLa cells): 25.7 ± 1.97 µM
IC50 (PC-3 cells): 21.8 ± 1.68 µM
%Inhibition of the ABTS radical cation [1]: 52.0%
IC50 [2]: 21.8 to 40.9 µM

Cc1ccc(C(=O)C=Cc2ccc(OC3CCCC3)cc2)cc1 [4b, 3-(4-(Cyclopentyloxy)phenyl)-1-(4-methylphenyl)prop-2-en-1-one]
IC50 (HepG2 cells): 20 ± 1.11 µM
IC50 (MCF-7 cells): 36.4 ± 2.6 µM
IC50 (HeLa cells): 18.8 ± 1.57 µM
IC50 (PC-3 cells): 17.1 ± 1.58 µM
%Inhibition of the ABTS radical cation [1]: 52.6%

O=c1[nH]cc(F)c(=O)[nH]1 [5-FU, 5-fluorouracil, reference compound]
IC50 (HepG2 cells): 7.9 ± 0.17 µM
IC50 (MCF-7 cells): 5.4 ± 0.2 µM
IC50 (HeLa cells): 4.8 ± 0.21 µM
IC50 (PC-3 cells): 8.3 ± 0.35 µM
IC50 [2]: 4.8 to 8.3 µM

O=C1CCCC1=Cc1ccc(OC2CCCC2)cc1 [5a, 2-(4-(Cyclopentyloxy)benzylidene)cyclopentanone]
IC50 (HepG2 cells): > 100 µM
IC50 (MCF-7 cells): > 100 µM
IC50 (HeLa cells): 77.8 ± 4.41 µM
IC50 (PC-3 cells): 94.1 ± 5.82 µM

O=C1CCCCC1=Cc1ccc(OC2CCCC2)cc1 [5b, 2-(4-(Cyclopentyloxy)benzylidene)cyclohexanone]
IC50 (HepG2 cells): 55.4 ± 3.95 µM
IC50 (MCF-7 cells): 49.4 ± 3.16 µM
IC50 (HeLa cells): 30.1 ± 2.24 µM
IC50 (PC-3 cells): 71.1 ± 4.93 µM
%Inhibition of the ABTS radical cation [1]: 51.4%

O=C1CCCCCC1=Cc1ccc(OC2CCCC2)cc1 [5c, 2-(4-(Cyclopentyloxy)benzylidene)cycloheptanone]
IC50 (HepG2 cells): 71.3 ± 4.53 µM
IC50 (MCF-7 cells): 64.7 ± 4.27 µM
IC50 (HeLa cells): 37.5 ± 2.81 µM
IC50 (PC-3 cells): 26.9 ± 1.89 µM
%Inhibition of the ABTS radical cation [1]: 51.0%

CN1CCC(=O)C(=Cc2ccc(OC3CCCC3)cc2)C1 [6a, 3-(4-(Cyclopentyloxy)benzylidene)-1-methylpiperidin-4-one]
IC50 (HepG2 cells): 15.9 ± 1.02 µM
IC50 (MCF-7 cells): 18.1 ± 1.58 µM
IC50 (HeLa cells): 9.4 ± 0.98 µM
IC50 (PC-3 cells): 10.5 ± 0.97 µM
%Inhibition of the ABTS radical cation [1]: 54.3%
IC50 [2]: 5.5 to 18.1 µM
IC50 (EGFR kinase): 4.66 µM
% Inhibition EGFR (EGFR kinase; 0.15 μM): 6.67%
% Inhibition EGFR (EGFR kinase; 0.31 μM): 18.16%
% Inhibition EGFR (EGFR kinase; 0.625 μM): 26.84%
% Inhibition EGFR (EGFR kinase; 1.25 μM): 34.55%
% Inhibition EGFR (EGFR kinase; 2.5 μM): 44.35%
% Inhibition EGFR (EGFR kinase; 5.0 μM): 50.34%
% Inhibition EGFR (EGFR kinase; 10.0 μM): 57.65%
inhibition at 0.15 µM (EGFR kinase; read-out: % Inhibition EGFR, 0.15 μM): 6.67%
inhibition at 0.31 µM (EGFR kinase; read-out: % Inhibition EGFR, 0.31 μM): 18.2%
inhibition at 0.625 µM (EGFR kinase; read-out: % Inhibition EGFR, 0.625 μM): 26.8%
inhibition at 1.25 µM (EGFR kinase; read-out: % Inhibition EGFR, 1.25 μM): 34.6%
inhibition at 2.5 µM (EGFR kinase; read-out: % Inhibition EGFR, 2.5 μM): 44.4%
inhibition at 5 µM (EGFR kinase; read-out: % Inhibition EGFR, 5.0 μM): 50.3%
inhibition at 10 µM (EGFR kinase; read-out: % Inhibition EGFR, 10.0 μM): 57.7%
Conc. (Average), ELISA read-out (EGFR kinase; sample at 0.15uM): 125.9
Conc. (Average), ELISA read-out (EGFR kinase; sample at 0.31uM): 110.4
Conc. (Average), ELISA read-out (EGFR kinase; sample at 0.62uM): 98.68
Conc. (Average), ELISA read-out (EGFR kinase; sample at 1.25uM): 88.29
Conc. (Average), ELISA read-out (EGFR kinase; sample at 2.5uM): 75.07
Conc. (Average), ELISA read-out (EGFR kinase; sample at 5uM): 66.98
Conc. (Average), ELISA read-out (EGFR kinase; sample at 10uM): 57.13
